# Measurements published in patent publication US20110015226A1, “Treatment of Energy Utilization Disease” (SUMMIT CORPORATION PLC, priority 2008, published 2011).
# Values joined by “and” are separate entries in the source; they are usually repeats but may differ in a detail not shown here. Equal values may be shown once. Read-outs that look alike come from different tables or passages of the source.
# Assays:
# [1] = system: N-acetyl-β-D-glucosaminidase (Jack bean); test: Glycosidase inhibition: N-acetyl-β-D-glucosaminidase (Jack bean); assay type: biochemical; conditions: compounds tested at 0.8 mM
# Excerpt: (§1) The results tabulated below were obtained using commercially available glycosidases and p-nitrophenyl-substrates using standard methods described for example by Watson et al (1997) Phytochemistry 46 255-259. All enzymes and substrates were bought from Sigma. Enzyme and substrate solutions were made using sodium phosphate buffers at the pH optima values. The enzymes used were α-D-glucosidase Saccharomyces cerevisiae, Bacillus stearothermophilus, Oryzae sativa), β-D-glucosidase (Almond), α-D-mannosidase (Jack bean), α-D-galactosidase (Green coffee beans), β-D-galactosidase (Bovine liver), α-L-fucosidase (Bovine kidney), N-acetyl-β-D-glucosaminidase (Bovine kidney, Jack bean, Aspergillus oryzae), Naringinase (Penicillium decumbens) and amyloglucosidase (Aspergillus niger). All enzymes were used with the appropriate p-nitrophenyl substrates (5 mM). Amyloglucosidase activity was measured using amylopectin (0.1%) (Merck) mixed with sodium phosphate buffer, pH 4.5 in a glass bottle, and healed in a boiling water bath for 20 minutes to dissolve with released glucose measured using ‘Trinder’ glucose detection solution (Sigma).
# (§2) All enzymes and para-nitrophenyl substrates were purchased from Sigma, with the exception of beta-mannosidase which came from Megazyme. Enzymes were assayed at 27° C. in 0.1M citric acid/0.2M disodium hydrogen phosphate buffers at the optimum pH for the enzyme. The incubation mixture consisted of 10 μl enzyme solution, 10 μl of 1 mg/ml aqueous solution of extract and 50 μl of the appropriate 5 mM para-nitrophenyl substrate made up in buffer at the optimum pH for the enzyme. The reactions were stopped by addition of 70 μl 0.4M glycine (pH 10.4) during the exponential phase of the reaction, which had been determined at the beginning using uninhibited assays in which water replaced inhibitor. Final absorbances were read at 405 nm using a Versamax microplate reader (Molecular Devices). Assays were carried out in triplicate, and the values given are means of the three replicates per assay. […]
# [2] = system: N-acetyl-β-D-glucosaminidase (Bovine kidney); test: Glycosidase inhibition: N-acetyl-β-D-glucosaminidase (Bovine kidney); assay type: biochemical; conditions: for % inhibition, N-acetyl-β-D-glucosaminidase (Bovine kidney): compounds tested at 0.8 mM;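 for all read-outs here: enzyme activity followed by cleavage of the matching p-nitrophenyl glycoside (5 mM) in phosphate buffer set to the enzyme's optimal pH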
# [3] = system: Naringinase Penicillium decumbens; test: Glycosidase inhibition: Naringinase Penicillium decumbens; assay type: biochemical; conditions: compounds tested at 0.8 mM
# Excerpt: as §1, §2
# [4] = target: T1, β-Glucuronidase Bovine liver (Bos taurus, UniProt A3KMY8); test: Glycosidase inhibition: β-Glucuronidase Bovine liver; assay type: biochemical; conditions: for inhibition at 800 µM: compounds tested at 0.8 mM;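 for all read-outs here: bovine liver β-glucuronidase acting on p-nitrophenyl β-D-glucuronide substrate in citric acid/disodium hydrogen phosphate buffer, pH 5.0, 27 °C, mean of triplicate runs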
# T1 construct: The assay involved the use of Bovine liver β-glucuronidase; purchased Sigma; host or cells: bovine liver
# T1 sequence (A3KMY8 1-652): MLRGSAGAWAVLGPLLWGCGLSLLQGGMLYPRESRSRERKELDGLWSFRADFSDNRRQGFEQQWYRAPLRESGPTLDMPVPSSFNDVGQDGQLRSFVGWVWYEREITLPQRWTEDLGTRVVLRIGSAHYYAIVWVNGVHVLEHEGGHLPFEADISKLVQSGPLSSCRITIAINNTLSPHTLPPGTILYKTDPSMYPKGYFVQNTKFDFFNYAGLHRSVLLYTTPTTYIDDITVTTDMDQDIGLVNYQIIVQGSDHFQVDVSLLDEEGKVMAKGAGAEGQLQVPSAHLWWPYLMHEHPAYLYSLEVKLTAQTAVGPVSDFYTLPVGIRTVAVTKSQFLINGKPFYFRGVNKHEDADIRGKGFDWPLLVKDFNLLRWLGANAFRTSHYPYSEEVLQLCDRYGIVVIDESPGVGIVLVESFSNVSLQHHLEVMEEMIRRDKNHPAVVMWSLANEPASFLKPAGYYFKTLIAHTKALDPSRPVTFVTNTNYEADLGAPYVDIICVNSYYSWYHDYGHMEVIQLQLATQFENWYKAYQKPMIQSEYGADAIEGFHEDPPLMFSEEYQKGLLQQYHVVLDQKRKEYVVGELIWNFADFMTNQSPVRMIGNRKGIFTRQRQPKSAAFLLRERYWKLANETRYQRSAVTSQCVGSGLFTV
# [5] = target: T2, α-D-mannosidase Jack bean (Canavalia ensiformis, UniProt C0HJB3); test: Glycosidase inhibition: α-D-mannosidase Jack bean; assay type: biochemical; conditions: compounds tested at 0.8 mM
# T2 construct: α-D-mannosidase (Jack bean); purchased Sigma
# T2 sequence (C0HJB3 1-981): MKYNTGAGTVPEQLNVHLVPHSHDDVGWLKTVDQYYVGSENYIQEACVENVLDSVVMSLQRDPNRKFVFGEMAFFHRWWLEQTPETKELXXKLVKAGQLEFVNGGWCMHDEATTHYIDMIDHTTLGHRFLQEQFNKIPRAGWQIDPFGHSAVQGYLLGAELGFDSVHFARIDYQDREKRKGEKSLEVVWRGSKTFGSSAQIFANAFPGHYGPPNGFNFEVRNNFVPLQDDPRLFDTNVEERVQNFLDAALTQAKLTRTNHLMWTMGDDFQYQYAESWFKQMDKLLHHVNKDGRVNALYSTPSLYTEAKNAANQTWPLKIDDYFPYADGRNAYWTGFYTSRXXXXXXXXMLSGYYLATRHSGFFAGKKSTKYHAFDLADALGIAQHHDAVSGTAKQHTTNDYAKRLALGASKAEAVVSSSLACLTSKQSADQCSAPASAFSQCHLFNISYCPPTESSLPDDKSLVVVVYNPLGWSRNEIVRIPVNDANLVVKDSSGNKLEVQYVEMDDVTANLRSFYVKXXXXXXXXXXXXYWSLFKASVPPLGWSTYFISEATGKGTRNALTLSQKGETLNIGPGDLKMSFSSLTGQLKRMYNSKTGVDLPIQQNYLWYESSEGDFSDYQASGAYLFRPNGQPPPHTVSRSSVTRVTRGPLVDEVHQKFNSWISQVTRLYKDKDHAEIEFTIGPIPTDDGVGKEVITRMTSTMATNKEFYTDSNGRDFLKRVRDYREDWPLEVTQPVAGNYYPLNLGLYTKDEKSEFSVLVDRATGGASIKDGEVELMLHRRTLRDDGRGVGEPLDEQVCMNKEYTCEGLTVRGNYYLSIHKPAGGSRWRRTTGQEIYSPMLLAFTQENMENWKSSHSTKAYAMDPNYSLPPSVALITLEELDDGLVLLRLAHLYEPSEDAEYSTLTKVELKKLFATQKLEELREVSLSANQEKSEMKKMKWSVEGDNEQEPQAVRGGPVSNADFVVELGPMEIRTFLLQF
# β-D-glucosidase (Almond) = test: Glycosidase inhibition: β-D-glucosidase (Almond); assay type: biochemical; conditions: compounds tested at 0.8 mM
# Excerpt: as §1, §2
# Solubility in water = assay type: physicochemical
# [6] = read-out: IC50 against mammalian glucuronidase
# [7] = pH 5.0, 27° C., p-nitrophenyl β-D-glucuronide, read-out: IC50, β-Glucuronidase Bovine liver
SMILES,"% inhibition, N-acetyl-β-D-glucosaminidase (Jack bean) [1]","% inhibition, N-acetyl-β-D-glucosaminidase (Bovine kidney) [2]","% inhibition, Naringinase Penicillium decumbens [3]",inhibition at 800 µM [4] [%],"IC50 [4, 6] [µM]",inhibition at 800 µM [5] [%],"% inhibition, β-D-glucosidase (Almond) (β-D-glucosidase (Almond))",solubility in water (Solubility in water),"IC50 [4, 7] [µM]","IC50 ([2]; read-out: IC50, N-acetyl-β-D-glucosaminidase (Bovine kidney)) [µM]",IC50 ([2]; read-out: IC50 against mammalian 6-N-acetylglucosaminidase (hexosaminidase)) [µM],"% inhibition, α-D-mannosidase Jack bean [5] [%]"
"O=C(O)[C@H]1NC[C@H](O)[C@@H](O)[C@@H]1O [Compound G2, 2S,3R,4R,5S-trihydroxypiperidine-2-carboxylic acid]",10%,NI (NI = no inhibition),NI (NI = no inhibition),90,107,29,NI (NI = no inhibition),freely soluble,,,,
"O=C(O)CN1[C@H](CO)[C@@H](O)[C@H](O)[C@H]1CO [Compound S2, 2-((2R,3R,4R,5R)-3,4-Dihydroxy-2,5-bis(hydroxymethyl)pyrrolidin-1-yl)acetic acid]",,,,,,< 50,55%,,507,,,
O=C(O)CCN1C[C@H](O)[C@@H](O)[C@H](O)[C@H]1CO [Compound T1],,86.1%,,,50,< 50,,,,32.2,32,
"CCCCOC(=O)[C@@H]1[C@@H](O)[C@H](O)[C@@H](O)CN1CCCC [Compound T2, (2S,3R,4R,5S)-Butyl 1-butyl-3,4,5-trihydroxypiperidine-2-carboxylate]",,,,,,< 50,,,280,,,
"OC[C@H]1NC[C@H](O)[C@@H](O)[C@@H]1O [DNJ, 1-deoxynojirimycin, reference compound]",NI (NI = no inhibition),,20% and 21%,< 10,,26,,,,,,27
